Assays:
Candida albicans = assay: Turbidity assay (broth macrodilution, NCCLS M27-A); assay type: cell-based; conditions: 40 micrograms Diflucan in solution; activity decreases as inoculum increases
Protocol: Candida albicans was purchased from ATCC.
A broth macrodilution assay was performed based on the NCCLS M27-A protocol. The stock fungal inoculum concentration was determined via backplating a set volume of the diluted fungus broth onto Trypticase Soy Agar plates. The number of colony forming units (cfu) grown per plate was then counted and extrapolated to determine the starting Candida concentration.
The stock fungus solution was then diluted to 10^6, 10^5 and 10^4 cfu/ml. After incubating the individual test segments in 2 ml of the fungus solutions for 24 hours at 30° C., the optical density of the broth solutions was measured at 492 nm.

[1] = organism not given; cited from earlier work

SMILES: OC(Cn1cncn1)(Cn1cncn1)c1ccc(F)cc1F [Diflucan, Fluconazole]
- antifungal activity (Candida albicans): excellent antifungal activity

SMILES: O=C(O)c1cn(C2CC2)c2cc(N3CCNCC3)c(F)cc2c1=O [Cipro, Ciprofloxacin]
- MIC50 [1]: 0.26 micrograms per ml
